Data published in patent publication US7740775B2, “Method for the production of particles” (priority 2001, dated 2010).

Assay: Particle size of the isolated crystalline product observed under a microscope
[1] = two-stage mixing, co-precipitation of salicylic acid (20% w/v) and adipic acid (3% w/v) from acetone
[2] = two-stage mixing with two HFC 134A streams (FIG. 6 nozzle), no surfactant

SMILES | particle size [1] | particle size range [2] | also measured
O=C(O)c1ccccc1O [salicylic acid] | below 3 microns | – | –
O=[N+]([O-])[O-].[Ag+] [silver nitrate] | – | ≤ 3 microns | –
O=C(O)CCCCC(=O)O [adipic acid, hexanedioic acid] | around 10 microns | 10-20 microns | particle size range (comparative single-stage mixing with one HFC 134A stream, no surfactant): 20-100 microns; particle size range (single-stage mixing, HFC 134A, 1% w/w Antorox B12 DF surfactant): 20-200 microns; particle size (single-stage mixing, HFC 134A, 1% w/w Brij 30 added to 10% w/v solution in ethanol): < 10 micron
CC(=O)Nc1ccc(O)cc1 [paracetamol, N-acetyl-p-aminophenol, reference compound] | – | – | particle size (two-stage mixing, HFC 134A, 8% w/v in methanol with 1% w/w Brij 30): < 3 micron
